# Source: patent publication US8940722B2, “Compounds for modulation of orphan nuclear receptor RAR-related orphan receptor-gamma (RORγ, NR1F3) activity and for the treatment of chronic inflammatory and autoimmune disease” (Phenex Pharmaceuticals AG, priority 2010, dated 2015)
# “And” between values parts separate entries of the source, which are not always exact repeats. Equal entries are not always repeated.
# Biological target: T1, RORγ ligand binding domain (LBD) (Homo sapiens, UniProt P51449)
# T1 construct: made in house; host or cells: E. coli BL-21 (BL3), vector pDEST15
# T1 sequence (P51449 269-508 limits assumed): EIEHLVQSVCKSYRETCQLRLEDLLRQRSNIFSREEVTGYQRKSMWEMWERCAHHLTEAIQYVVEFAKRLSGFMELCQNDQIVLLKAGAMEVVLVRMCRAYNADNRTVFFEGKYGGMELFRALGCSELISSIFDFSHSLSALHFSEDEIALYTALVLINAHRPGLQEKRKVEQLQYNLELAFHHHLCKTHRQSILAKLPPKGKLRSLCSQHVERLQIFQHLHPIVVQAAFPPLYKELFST
# Experiment: TR-FRET Activity Assay (RORγ-LBD / coactivator peptide interaction)
# Assay type: biochemical
# Conditions: Table 2; read-out: RORγ activity in the TR-FRET Activity Assay (IC50 FRET), Group
# Excerpt: This method measures the ability of putative ligands to modulate the interaction between the purified bacterial expressed RORγ ligand binding domain (LBD) and synthetic N-terminally biotinylated peptides which are derived from nuclear receptor coactivator proteins such as but not limited to SRC1 (NcoA1), SRC2 (NcoA2, TIF2), SRC3 (NcoA3), PGC1α, PGC1β, CBP, GRIP1, TRAP220, RIP140.
# The ligand-binding domain (LBD) of RORγ was expressed as fusion protein with GST in […] cells using the vector pDEST15. Cells were lysed by lysozyme-treatment and sonication, and the fusion proteins purified over glutathione sepharose (Pharmacia) according to the manufacturers instructions. For screening of compounds for their influence on the RORγ-peptide interaction, the LANCE technology (Perkin Elmer) was applied. This method relies on the binding dependent energy transfer from a donor to an acceptor fluorophor attached to the binding partner of interest. For ease of handling and reduction of background from compound fluorescence LANCE technology makes use of generic fluorophore labels and time resolved detection assays were done in a final volume of 25 μL in a 384 well plate, in a Tris-based buffer system (20 mM Tris-HCl pH6.8; 60 mM KCl, 1 mM DTT; 5 mM MgCl2; 35 ng/μL BSA), containing 20-60 ng/well recombinantly expressed RORγ-LBD fused to GST, 200-600 nM N-terminally biotinylated peptide, 200 ng/well Streptavidin-xIAPC conjugate (Prozyme) and 6-10 ng/well Eu W1024—antiGST (Perkin Elmer). DMSO content of the samples was kept at 1%.
# After generation of the Tris-based buffer system, the potentially RORγ modulating ligands were diluted. […] The LANCE signal was detected by a Perkin Elmer EnVision™ Multilabel Counter. The results were visualized by plotting the ratio between the emitted light at 665 nm and 615 nm. […] Ligands that promote the complex formation induce a concentration-dependent increase in time-resolved fluorescent signal.
# To assess the antagonistic potential of the compounds, IC50 values were determined using a Ligand Sensing Assay based on Time-resolved Fluorescence Energy Transfer (TR-FRET) as described above. The normalised TR-FRET assay values, using the following equation: 1000*665 nm measurement value/615 nm measurement value, were transferred to the program GraphPad Prism to generate graphs and dose response curves using the following equation: • Equation: Sigmoidal dose-response (variable slope) Y=Bottom+(Top−Bottom)/(1+10^((Log EC50−X)*HillSlope))
# This is identical to the “four parameter logistic equation”. The IC50 values are calculated using this equation.
row,IC50,SMILES
1,> 2 µM,COc1ccccc1S(=O)(=O)N1Cc2c(C#N)cccc2COCC1Cc1ccccc1 (stereo not drawn) [5/2]
2,< 0.5 µM,COc1ccccc1S(=O)(=O)N1Cc2ccccc2COCC1Cc1cccc(C#N)c1 (stereo not drawn) [5/3]
3,> 2 µM,COc1ccccc1S(=O)(=O)N1Cc2ccccc2COCC1Cc1ccc(C#N)cc1 (stereo not drawn) [5/4]
4,> 2 µM,COc1ccccc1S(=O)(=O)N1Cc2ccccc2COCC1Cc1cccc(-c2cncnc2)c1 (stereo not drawn) [5/5]
5,> 2 µM,COc1cccc(-c2cccc(CC3COCc4ccccc4CN3S(=O)(=O)c3ccccc3OC)c2)n1 (stereo not drawn) [5/6]
6,> 2 µM,CC(C)(C)OC[C@@H]1COCc2ncccc2CN1S(=O)(=O)c1cccc2cccnc12 [6/1]
7,< 0.5 µM,CC(C)(C)OC[C@@H]1COCc2ncccc2CN1S(=O)(=O)c1ccccc1OC(F)(F)F [6/2]
8,0.5 to 2 µM,CCOc1ccc(F)cc1S(=O)(=O)N1Cc2cccnc2COC[C@H]1COC(C)(C)C [6/3]
9,> 2 µM,CC(C)(C)OC[C@@H]1COCc2ncccc2CN1S(=O)(=O)c1c(F)cccc1F [6/4]
10,0.5 to 2 µM,CC(C)(C)OC[C@@H]1COCc2ncccc2CN1S(=O)(=O)c1cccc2c1OCC2 [6/5]
11,0.5 to 2 µM,O=S(=O)(c1cccc2cccnc12)N1Cc2ccccc2COC[C@H]1COCc1ccccc1 [16/1]
12,> 2 µM,COCCOC[C@@H]1COCc2ccccc2CN1S(=O)(=O)c1cccc2cccnc12 [16/2]
13,> 2 µM,O=S(=O)(c1cccc2cccnc12)N1Cc2ccccc2COC[C@H]1CN1CCCCC1 [17/2]
14,< 0.5 µM,O=S(=O)(c1cccc2cccnc12)N1Cc2ccccc2COC[C@H]1CN1CCOCC1 [17/4]
15,0.5 to 2 µM,O=S(=O)(c1ccccc1OC(F)(F)F)N1Cc2nncn2CCC[C@H]1Cc1ccccc1 [31/1]
16,0.5 to 2 µM,O=S(=O)(c1ccccc1OC(F)(F)F)N1Cc2nccn2CCC[C@H]1Cc1ccccc1 [31/2]
17,0.5 to 2 µM,"COc1ccccc1S(=O)(=O)N1Cc2ccccc2CN(C)CC1Cc1ccccc1 (stereo not drawn) [Preparative Example 2, 3-Benzyl-2-(2-methoxyphenylsulfonyl)-5-methyl-1,2,3,4,5,6-hexahydrobenzo-[f][1,4]-diazocine]"
18,> 2 µM,O=S(=O)(c1cc(F)ccc1OCCN1CCOCC1)N1Cc2ccccc2COCC1Cc1ccccc1 (stereo not drawn) [Preparative Example 11]
19,> 2 µM,"COC[C@@H]1COCc2ccccc2CN1S(=O)(=O)c1cccc2cccnc12 [Preparative Example 16, (R)-4-(Methoxymethyl)-5-(quinolin-8-ylsulfonyl)-3,4,5,6-tetrahydro-1H-benzo[f][1,4]oxazocine]"
20,> 2 µM,"O=S(=O)(c1cccc2cccnc12)N1Cc2ccccc2COC[C@H]1Cn1cccn1 [Preparative Example 17, (R)-4-((1H-Pyrazol-1-yl)methyl)-5-(quinolin-8-ylsulfonyl)-3,4,5,6-tetrahydro-1H-benzo[f][1,4]oxazocine]"
21,0.5 to 2 µM,"C=CC[C@@H]1COCc2ccccc2CN1S(=O)(=O)c1cccc2cccnc12 [Preparative Example 18, (R)-4-Allyl-5-(quinolin-8-ylsulfonyl)-3,4,5,6-tetrahydro-1H-benzo[f][1,4]oxazocine]"
22,< 0.5 µM,"O=S(=O)(c1cccc2cccnc12)N1Cc2ccccc2COC[C@H]1CC1CC1 [Preparative Example 20, (R)-4-(Cyclopropylmethyl)-5-(quinolin-8-ylsulfonyl)-3,4,5,6-tetrahydro-1H-benzo[f][1,4]oxazocine]"
23,> 2 µM,"CC(C)(O)C[C@@H]1COCc2ccccc2CN1S(=O)(=O)c1cccc2cccnc12 [Preparative Example 22, (R)-2-Methyl-1-(5-(quinolin-8-ylsulfonyl)-3,4,5,6-tetrahydro-1H-benzo[f][1,4]oxazocin-4-yl)propan-2-ol]"

# Further lines, the compound ahead of its results:
row,SMILES,IC50
1,COc1ccccc1S(=O)(=O)N1Cc2ccccc2COC[C@H]1Cc1ccccc1 [1/2],< 0.5 µM and > 2 µM
2,COc1ccc(F)cc1S(=O)(=O)N1Cc2ccccc2COCC1Cc1ccccc1 (stereo not drawn) [1/5],< 0.5 µM
3,COc1ccc(Cl)cc1S(=O)(=O)N1Cc2ccccc2COCC1Cc1ccccc1 (stereo not drawn) [1/6],< 0.5 µM
4,O=S(=O)(c1cccc2c1OCC2)N1Cc2ccccc2COCC1Cc1ccccc1 (stereo not drawn) [1/9],< 0.5 µM
5,O=S(=O)(c1cccc2nonc12)N1Cc2ccccc2COCC1Cc1ccccc1 (stereo not drawn) [1/10],< 0.5 µM
6,O=S(=O)(c1c(Cl)ccc2nonc12)N1Cc2ccccc2COCC1Cc1ccccc1 (stereo not drawn) [1/11],0.5 to 2 µM
7,O=S(=O)(c1cccc2nsnc12)N1Cc2ccccc2COCC1Cc1ccccc1 (stereo not drawn) [1/12],< 0.5 µM
8,Cc1ccc2nsnc2c1S(=O)(=O)N1Cc2ccccc2COCC1Cc1ccccc1 (stereo not drawn) [1/13],0.5 to 2 µM
9,O=S(=O)(c1ccccc1F)N1Cc2ccccc2COCC1Cc1ccccc1 (stereo not drawn) [1/14],< 0.5 µM
10,Cc1c(F)cccc1S(=O)(=O)N1Cc2ccccc2COCC1Cc1ccccc1 (stereo not drawn) [1/17],0.5 to 2 µM
11,O=S(=O)(c1cc(Cl)ccc1F)N1Cc2ccccc2COCC1Cc1ccccc1 (stereo not drawn) [1/18],< 0.5 µM
12,N#Cc1ccc(Cl)cc1S(=O)(=O)N1Cc2ccccc2COCC1Cc1ccccc1 (stereo not drawn) [1/19],< 0.5 µM
13,Cc1ccc(Cl)cc1S(=O)(=O)N1Cc2ccccc2COCC1Cc1ccccc1 (stereo not drawn) [1/20],0.5 to 2 µM
14,O=S(=O)(c1c(F)cccc1F)N1Cc2ccccc2COCC1Cc1ccccc1 (stereo not drawn) [1/22],< 0.5 µM
15,O=S(=O)(c1c(Cl)cccc1Cl)N1Cc2ccccc2COCC1Cc1ccccc1 (stereo not drawn) [1/23],0.5 to 2 µM
16,O=S(=O)(c1cc(C(F)(F)F)ccc1F)N1Cc2ccccc2COCC1Cc1ccccc1 (stereo not drawn) [1/24],< 0.5 µM
17,O=S(=O)(c1ccccc1C(F)(F)F)N1Cc2ccccc2COCC1Cc1ccccc1 (stereo not drawn) [1/25],0.5 to 2 µM
18,O=S(=O)(c1cc(Cl)sc1Cl)N1Cc2ccccc2COCC1Cc1ccccc1 (stereo not drawn) [1/27],> 2 µM
19,COc1cccc(S(=O)(=O)N2Cc3ccccc3COCC2Cc2ccccc2)c1 (stereo not drawn) [1/28],0.5 to 2 µM

row,SMILES,IC50
1,COc1ccc(S(=O)(=O)N2Cc3ccccc3COCC2Cc2ccccc2)cc1 (stereo not drawn) [1/29],> 2 µM
2,Cc1nc(S(=O)(=O)N2Cc3ccccc3COCC2Cc2ccccc2)cn1C (stereo not drawn) [1/30],> 2 µM
3,Cn1cnc(S(=O)(=O)N2Cc3ccccc3COCC2Cc2ccccc2)c1Cl (stereo not drawn) [1/31],> 2 µM
4,Cc1nn(C)c(Cl)c1S(=O)(=O)N1Cc2ccccc2COCC1Cc1ccccc1 (stereo not drawn) [1/32],> 2 µM
5,COc1ccccc1S(=O)(=O)N1Cc2cc(F)ccc2COCC1Cc1ccccc1 (stereo not drawn) [1/33],> 2 µM
6,COc1ccc2c(c1)CN(S(=O)(=O)c1ccccc1OC)C(Cc1ccccc1)COC2 (stereo not drawn) [1/34],> 2 µM
7,COc1ccccc1S(=O)(=O)N1Cc2ccc(F)cc2COCC1Cc1ccccc1 (stereo not drawn) [1/35],> 2 µM
8,COc1ccccc1S(=O)(=O)N1Cc2cccc(OC)c2COCC1Cc1ccccc1 (stereo not drawn) [1/36],0.5 to 2 µM
9,COc1ccccc1S(=O)(=O)N1Cc2ccccc2COCC1Cc1ccc(F)cc1 (stereo not drawn) [1/37],0.5 to 2 µM
10,COc1cccc(CC2COCc3ccccc3CN2S(=O)(=O)c2cccc3cccnc23)c1 (stereo not drawn) [1/38],< 0.5 µM
11,COC(=O)c1ccccc1S(=O)(=O)N1Cc2ccccc2COCC1Cc1ccccc1 (stereo not drawn) [1/39],0.5 to 2 µM
12,COc1cccc2c1COCC(Cc1ccccc1)N(S(=O)(=O)c1cccc3cccnc13)C2 (stereo not drawn) [1/40],< 0.5 µM
13,COc1ccccc1S(=O)(=O)N1Cc2ccccc2COCC1CC(C)C (stereo not drawn) [1/41],0.5 to 2 µM
14,CCC(C)CC1COCc2ccccc2CN1S(=O)(=O)c1cccc2cccnc12 (stereo not drawn) [1/43],< 0.5 µM
15,COc1ccccc1S(=O)(=O)N1Cc2c(Br)cccc2COCC1Cc1ccccc1 (stereo not drawn) [3/1],> 2 µM
16,COc1ccccc1S(=O)(=O)N1Cc2ccccc2COCC1Cc1cccc(Br)c1 (stereo not drawn) [3/2],< 0.5 µM
17,COc1ccccc1S(=O)(=O)N1Cc2c(cccc2OC)COCC1Cc1ccccc1 (stereo not drawn) [5/1],> 2 µM
18,"CC(C)(C)OC[C@@H]1COCc2ccccc2CN1S(=O)(=O)c1cccc2cccnc12 [Preparative Example 14, (S)-4-(tert-Butoxymethyl)-5-(quinolin-8-ylsulfonyl)-3,4,5,6-tetrahydro-1H-benzo[f][1,4]oxazocine]",< 0.5 µM
